Results reported in patent EP4806890A1, “CRYSTALLINE COMPOUND OR BASIC SALT THEREOF, PREPARATION METHOD THEREFOR, AND USE THEREOF” (Abbisko Therapeutics Co., Ltd., priority 2023, dated 2025).
Each block holds one molecule with its values, some of them ahead of it.

How the values were obtained:
T cells = settings: statement of the background, WO2019149183A1; cited from earlier work
PD-1/PD-L1 = PD-1/PD-L1 (Homo sapiens, UniProt Q9NZQ7); settings: statement of the background, WO2019149183A1; cited from earlier work
[1] = Later pharmaceutical research on the trifluoroacetate freeze-dried amorphous compound of WO2019149183A1 (solid-state properties); assay type: physicochemical
[2] = Stability determination (thermal stability and photostability, HPLC purity, appearance, XRPD); assay type: physicochemical; settings: for physical and chemical stability (in words): 50 °C/75% RH (open), 80 °C for 7 days and photostress for 10 days; for XRPD: crystalline form found
Protocol: (§1) The stability and solubility of the crystalline free form of the compound of formula (I) or the basic salt thereof of the present application were determined by HPLC.
An appropriate amount of the sample was placed in a vial and left to stand at 50 °C, 80 °C or 50 °C & 75% RH (open) for 7 days to evaluate thermal stability. An appropriate amount of the sample was placed in a transparent vial, […] evaluation under conditions of overall near-ultraviolet energy of 1.2 * 10^6 Lux·hr and no less than 200 W·hr/m2.

[3] = Hygroscopic behavior test by dynamic vapor sorption (DVS); assay type: physicochemical; settings: for hygroscopicity (in words): DVS, 25 °C
Excerpt: The experimental method of characterizing the crystalline free form of the compound of formula (I) or the basic salt thereof using dynamic vapor sorption (DVS) is as follows: a small amount of the crystalline sample was placed in a precision sample tray that was compatible with the instrument; after the sample was loaded, the sample tray was placed into the instrument for analysis. In this patent, the instruments used for dynamic vapor sorption were all the DVS Intrinsic plus model, and the following experimental parameters were set: nitrogen was used as the carrier gas, a constant temperature of 25 °C was set, the rate of mass percentage change over a unit of time (dm/dt) = 0.002%/min was used as a criterion for determining if equilibrium is reached, and the program humidity change cycle was set to 50-95-0-95-50% RH; within the range of 0-90% RH, a change of 10% RH was taken as a step, and within the range of 90% RH-95% RH, a change of 5% RH was taken as a step.
In the present invention, the hygroscopic weight increases (hygroscopic weight increase/weight before hygroscopy * 100%) of various crystalline forms under various relative humidity conditions were determined using the dynamic vapor sorption method, and the hygroscopicity of different crystalline compounds was evaluated.

[4] = Solubility determination (equilibrium solubility, 24 hrs stirring at room temperature, HPLC); assay type: physicochemical; settings: for Equilibrium solubility: target concentration 2000 µg/mL, 24 hrs; for pH24 hrs: pH of the filtrate after 24 hrs; for solubility (in words): various pH conditions, buffers and biological medium solutions
Protocol: as §1
The desired amount of the compound was weighed into a glass vial, and the desired amount of a vehicle was added. A stir bar was added to the vial, and the mixture was stirred at room temperature for 24 hrs. After 24 hrs, the appearance of the sample was observed. An appropriate amount of the sample was filtered through a PVDF 0.45 µm filter membrane, and the filtrate was collected. The pH value of the filtrate was determined, and the sample was diluted with MeOH. The diluted sample was injected into an HPLC system to determine the concentration.

[5] = Aluminum foil light exposure control, 9.2 days
[6] = Transparent light exposure, 9.2 days
[7] = Relative humidity 0.0 % at 25 °C
[8] = Relative humidity 10.0 % at 25 °C
[9] = Relative humidity 20.0 % at 25 °C
[10] = Relative humidity 30.0 % at 25 °C
[11] = Relative humidity 40.0 % at 25 °C
[12] = Relative humidity 50.0 % at 25 °C
[13] = Relative humidity 60.0 % at 25 °C
[14] = Relative humidity 70.0 % at 25 °C
[15] = Relative humidity 80.0 % at 25 °C
[16] = Relative humidity 90.0 % at 25 °C
[17] = pH 4.7, 50 mM acetic acid buffer
[18] = pH 6.8, 50 mM phosphoric acid buffer

Chain of PD-1/PD-L1 (Q9NZQ7 19-238 limits assumed): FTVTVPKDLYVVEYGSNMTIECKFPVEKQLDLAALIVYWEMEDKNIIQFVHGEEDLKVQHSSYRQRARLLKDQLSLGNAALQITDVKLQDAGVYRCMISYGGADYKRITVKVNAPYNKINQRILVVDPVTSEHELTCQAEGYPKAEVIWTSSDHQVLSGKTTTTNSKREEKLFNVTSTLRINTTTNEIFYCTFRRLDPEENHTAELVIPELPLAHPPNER

- hygroscopicity (in words) [1]: very hygroscopic
- solubility (in words) [1]: poor solubility
Structure (SMILES): Cc1c(NC(=O)c2cc(C3CC3)c(CN3CCCC[C@H]3C(=O)O)cn2)cccc1-c1cccc(NC(=O)c2cc(C3CC3)c(CN3CCCC[C@H]3C(=O)O)cn2)c1C [compound of formula (I), (2S,2'S)-1,1'-(((((2,2'-dimethyl-[1,1'-biphenyl]-3,3'-diyl)bis(azanediyl))bis(carbonyl))bis(4-cyclopropylpyridine-6,3-diyl))bis(methylene))bis(piperidine-2-carboxylic acid)]
- activation of T cells at the cellular level (T cells): enhance or restore the activation of T cells
- inhibitory effect on the protein interaction of PD-1/PD-L1 (PD-1/PD-L1): strong inhibitory effect

- Appearance ([2]; 50 °C, 7 days): White powder
- Purity (%) ([2]; 50 °C, 7 days): 98.13%
- Appearance ([2]; 50 °C/75%RH, 7 days): White powder
- Purity (%) ([2]; 50 °C/75%RH, 7 days): 98.24%
- Appearance ([2]; 80 °C, 7 days): White powder
- Purity (%) ([2]; 80 °C, 7 days): 97.22%
- Appearance [2, 5]: White powder
- Purity (%) [2, 5]: 98.26%
- Appearance ([2]; Initial, 0 days): White powder
- Purity (%) ([2]; Initial, 0 days): 98.17%
- Appearance [2, 6]: White powder
- Purity (%) [2, 6]: 96.06%
- XRPD ([2]; 50 °C, 7 days): Free-form crystalline form D
- XRPD ([2]; 50 °C/75%RH, 7 days): Free-form crystalline form D
- XRPD ([2]; 80 °C, 7 days): Free-form crystalline form D
- XRPD [2, 5]: Free-form crystalline form D
- XRPD ([2]; Initial, 0 days): Free-form crystalline form D
- XRPD [2, 6]: Free-form crystalline form D
- hygroscopicity (in words) [3]: moderate hygroscopicity
- hygroscopicity (in words) ([3]; listed as crystalline form D): moderately hygroscopic
- Hygroscopic weight increase (%) [3, 7]: 0.00%
- Hygroscopic weight increase (%) [3, 8]: 0.40%
- Hygroscopic weight increase (%) [3, 9]: 0.85%
- Hygroscopic weight increase (%) [3, 10]: 1.34%
- Hygroscopic weight increase (%) [3, 11]: 1.85%
- Hygroscopic weight increase (%) [3, 12]: 2.30%
- Hygroscopic weight increase (%) [3, 13]: 2.76%
- Hygroscopic weight increase (%) [3, 14]: 3.25%
- Hygroscopic weight increase (%) [3, 15]: 3.79%
- Hygroscopic weight increase (%) [3, 16]: 4.58%
- crystalline form changes after DVS testing [3]: no crystalline form changes
- Equilibrium solubility ([4]; FaSSGF): 87.01 µg/mL
- Equilibrium solubility ([4]; FaSSIF): 78.44 µg/mL
- Equilibrium solubility ([4]; FeSSIF): 433.75 µg/mL
- Equilibrium solubility ([4]; Water, room temperature): 51.93 µg/mL
- Equilibrium solubility ([4]; pH 1.2, HCl 100 mM): 281.84 µg/mL
- Equilibrium solubility [4, 17]: 47.41 µg/mL
- Equilibrium solubility [4, 18]: 42.11 µg/mL
- pH24 hrs ([4]; FaSSGF): 1.57
- pH24 hrs ([4]; FaSSIF): 6.43
- pH24 hrs ([4]; FeSSIF): 4.94
- pH24 hrs ([4]; Water): 5.82
- pH24 hrs ([4]; pH 1.2, HCl 100 mM): 1.16
- pH24 hrs [4, 17]: 4.73
- pH24 hrs [4, 18]: 6.90
- solubility (in words) [4]: significantly improved solubility
Structure (SMILES): Cc1c(NC(=O)c2cc(C3CC3)c(CN3CCCC[C@H]3C(=O)O)cn2)cccc1-c1cccc(NC(=O)c2cc(C3CC3)c(CN3CCCC[C@H]3C(=O)O)cn2)c1C [free-form crystalline form D, (2S,2'S)-1,1'-(((((2,2'-dimethyl-[1,1'-biphenyl]-3,3'-diyl)bis(azanediyl))bis(carbonyl))bis(4-cyclopropylpyridine-6,3-diyl))bis(methylene))bis(piperidine-2-carboxylic acid)]
- physical and chemical stability (in words) ([2]; 50 °C): extremely high physical and chemical stability

- Appearance ([2]; 50 °C, 11 days): White powder
- Purity (%) ([2]; 50 °C, 11 days): 99.36%
- Appearance ([2]; 50 °C/75%RH, 11 days): White powder
- Purity (%) ([2]; 50 °C/75%RH, 11 days): 99.36%
- Appearance ([2]; 80 °C, 11 days): White powder
- Purity (%) ([2]; 80 °C, 11 days): 99.22%
- Appearance [2, 5]: White powder
- Purity (%) [2, 5]: 99.39%
- Appearance ([2]; Initial, 0 days): White powder
- Purity (%) ([2]; Initial, 0 days): 99.44%
- Appearance [2, 6]: White powder
- Purity (%) [2, 6]: 99.43%
- XRPD ([2]; 50 °C, 11 days): Free-form crystalline form F
- XRPD ([2]; 50 °C/75%RH, 11 days): Free-form crystalline form F
- XRPD ([2]; 80 °C, 11 days): Free-form crystalline form F
- XRPD [2, 5]: Free-form crystalline form F
- XRPD ([2]; Initial, 0 days): Free-form crystalline form F
- XRPD [2, 6]: Free-form crystalline form F
- hygroscopicity (in words) [3]: moderate hygroscopicity
- hygroscopicity (in words) ([3]; listed as crystalline form F): moderately hygroscopic
- Hygroscopic weight increase (%) [3, 7]: 0.00%
- Hygroscopic weight increase (%) [3, 8]: 0.18%
- Hygroscopic weight increase (%) [3, 9]: 0.38%
- Hygroscopic weight increase (%) [3, 10]: 0.60%
- Hygroscopic weight increase (%) [3, 11]: 0.84%
- Hygroscopic weight increase (%) [3, 12]: 1.14%
- Hygroscopic weight increase (%) [3, 13]: 1.54%
- Hygroscopic weight increase (%) [3, 14]: 2.04%
- Hygroscopic weight increase (%) [3, 15]: 2.55%
- Hygroscopic weight increase (%) [3, 16]: 3.28%
- crystalline form changes after DVS testing [3]: no crystalline form changes
- Equilibrium solubility ([4]; FaSSGF): 117.15 µg/mL
- Equilibrium solubility ([4]; FaSSIF): 306.56 µg/mL
- Equilibrium solubility ([4]; FeSSIF): 1723.16 µg/mL
- Equilibrium solubility ([4]; Water, room temperature): 69.47 µg/mL
- Equilibrium solubility ([4]; pH 1.2, HCl 100 mM): 244.49 µg/mL
- Equilibrium solubility [4, 17]: 67.33 µg/mL
- Equilibrium solubility [4, 18]: 61.01 µg/mL
- pH24 hrs ([4]; FaSSGF): 1.58
- pH24 hrs ([4]; FaSSIF): 6.42
- pH24 hrs ([4]; FeSSIF): 4.99
- pH24 hrs ([4]; Water): 5.52
- pH24 hrs ([4]; pH 1.2, HCl 100 mM): 1.15
- pH24 hrs [4, 17]: 4.68
- pH24 hrs [4, 18]: 6.93
Structure (SMILES): Cc1c(NC(=O)c2cc(C3CC3)c(CN3CCCC[C@H]3C(=O)O)cn2)cccc1-c1cccc(NC(=O)c2cc(C3CC3)c(CN3CCCC[C@H]3C(=O)O)cn2)c1C [free-form crystalline form F, (2S,2'S)-1,1'-(((((2,2'-dimethyl-[1,1'-biphenyl]-3,3'-diyl)bis(azanediyl))bis(carbonyl))bis(4-cyclopropylpyridine-6,3-diyl))bis(methylene))bis(piperidine-2-carboxylic acid)]
- physical and chemical stability (in words) ([2]; 50 °C): extremely high physical and chemical stability
- solubility (in words) [4]: extremely significantly improved solubility
